We go through 3 substances from patent publication US10881709B2, “Immune system modulators and compositions” (Canimguide Therapeutics AB, priority 2015, dated 2021).

Ends that are not written are not given here.

The subject of experiment [1] is PBMCs. Briefly: Direct binding to PBMCs (immunocytochemistry, rosetting of coated beads). Details: species or system human.
Experiment [2] relates to PBMCs. The experiment in a line: Mitochondrial metabolism of PBMCs, conversion of MTS. The experiment is classed as cell-based, human. To be noted: PBMCs from cancer patients, 5-40 μg/ml. As for the experimental part: PBMCs from eight healthy control samples and nine cancer patients with various diagnoses (including renal cell cancer, malignant melanoma, rectal cancer, small cell lung cancer, non-small cell lung cancer (adenocarcinoma), squamous cell carcinoma, bladder cancer, osteosarcoma, pancreatic cancer, or bronchial cancer) were cultured in a modified version of the ex vivo model of Example 2 for seven days in the presence of various quantities of P28R (SEQ ID NO: 2), and control samples were untreated with P28R. […] Similar results were obtained when the PBMCs were cultured for only three days.
PBMCs from cancer patients with various diagnoses were cultured in a modified version of the ex vivo model of Example 2 with various concentrations of P28R or P27 (N=9 for P28R: N=8 for P27). The concentrations were either untreated control samples, 5 μg/mL (“SCF28-R5” and “SCF275”), 10 μg/ml (“SCF28-R10” and “SCF2710”), 20 μg/ml (“SCF28-R20” and “SCF2720”), or 40 μg/ml (“SCF28-R40” and “SCF2740”).

Experiment [3] has as its target P3028 (PGE73=His-tag-P3028) (Homo sapiens, UniProt P02768). The experiment in a line: Blocking of P3028 binding by peptide inhibitors in solution (PEPSCAN-based ELISA). To be noted: peptide 0.5 mg/mL. As for the experimental part:
Three candidate peptide inhibitors of P3028 sequences/structures were identified and their blocking capacity in solution was tested. Potential peptide inhibitors of P3028 were synthesized on a chip. The linear and/or CLIPS peptides were synthesized based on the amino acid sequence of the target protein using standard Fmoc-chemistry and deprotected using trifluoric acid with scavengers. The constrained peptides were synthesized on chemical scaffolds in order to reconstruct conformational epitopes, using Chemically Linked Peptides on Scaffolds (CLIPS) technology (Timmerman et al. (2007)). For example, the single looped peptides were synthesized containing a dicysteine, which was cyclized by treating with alpha, alpha′-dibromoxylene and the size of the loop is varied by introducing cysteine residues at variable spacing. […] After one hour, the color development was measured. The color development was quantified with a charge coupled device (CCD)—camera and an image processing system.
The raw data (Raw Data: Optical density, Arbitrary OD units) are optical values obtained by a CCD-camera. The values mostly range from 0 to 3000, a log scale similar to 1 to 3 of a standard 96-well plate ELISA-reader. […] Sometimes a well contains an air-bubble resulting in a false-positive value, the cards are manually inspected and any values caused by an air-bubble are scored as 0. […]

In experiment [4] the test system is PBMCs. Briefly: IL-2 induced proliferation of PBMCs, BrdU incorporation. The class given is cell-based, human. To be noted: PBMCs with low initial proliferation / low response to IL-2, 7 days. As for the experimental part: PBMCs were cultured for 7 days with IL-2 and the proliferative rate was determined as incorporation of BrdU. Each bar represents mean value of triplets. Similar to the studies on the efficacy of antibodies (see FIG. 22) directed against P3028 to reverse cancer related immunosuppression determined as a poor proliferative response of PBMCs from cancer patients to IL-2, the efficacy of the low molecular weight inhibitor P28R on reversal of suppressed IL-2 induced proliferation was investigated. For each quantity of added P28R, IL-2 stimulated cells 240 are shown in the left, and unstimulated 242 are shown on the right. […]
The effect of P28R (SEQ ID NO: 2) on IL-2 induced proliferation was measured in a BrdU incorporation assay. […]
The response of high responders and low responders to various doses of P28R was compared. […] IL-2-induced proliferation was measured as BrdU incorporation, as in the above example, and the results are shown for high responders in FIG. 36A, and low responders in FIG. 36B.
PBMCs from low responder cancer patients of Example 30 were cultured as in Example 30, except that some samples were cultured with various concentrations P28R (aka “SCF28-R”), and others were cultured with various concentrations of P27 (aka “SCF27”). […] BrdU incorporation was measured as in Example 30. […]
(In general: Uptake of a labelled nucleoside into DNA is a usual measure of proliferation.)

For another experiment, the target named is P3028 (SEQ ID NO: 185) (Homo sapiens, UniProt P02768). Briefly: Positional scan: P3028 binding to solid phase P28R variants (ELISA). As for the experimental part:
Positional scan data was used to study the influence of substitution of different types of amino acids in each position of P28R (SEQ ID NO: 2) on the binding of P3028 (SEQ ID NO: 185). Each amino acid in the peptide sequence of P28R (SEQ ID NO: 2) was exchanged with all of the naturally occurring amino acids, and immobilized on a solid phase chip. The binding of P3028 to these “mutated” P28 R peptides synthesized on a chip was determined using the ELISA technique. In view of the results, Table 13 includes a column identifying optional substitutions at each position that can maintain binding to P3028.
On the technique in general: An ELISA detects its analyte on a solid surface through an enzyme-linked reagent.

For experiment [5], the system named is PBMCs from healthy control person. The experiment in a line: PBMC activation (CD69/CD71, flow cytometry) in RPMI plus 10% human AB serum. The experiment is classed as cell-based. The conditions noted are these: 40 μg/mL, 24 hours, healthy PBMCs. The method, then:
The activity of peptide P28R (SEQ ID NO: 2) and modifications of P28R was studied in a human ex vivo model using PBMCs in short term cultures, 24 or 48 hours. Effects of P28R and modifications of P28R on PBMCs from a healthy control person were studied. Activation was measured as percentage of cells with enhanced marker CD69 using flow cytometry. PBMCs were incubated with the peptides (40 μg/mL) for 24 hours in RPMI plus 10% human AB serum.
As observed in Example 37, P28R (SEQ ID NO: 2) can stimulate PBMCs from healthy controls in short term cultures when RPMI plus 10% normal human AB serum is used as culture medium. Truncations of P28R were also assessed for their ability to activate PBMCs. PBMCs were incubated with the peptides (40 μg/mL) for 24 hours in RPMI plus 10% human AB serum. PBMC activation was measured as percent cells with enhanced expression of either CD69 (FIG. 42A) or CD71 (FIG. 42B) using flow cytometry. Two experiments were performed for each peptide.
Effects of modified peptides on activation of PBMCs from healthy control person were assessed. Activation was determined as percentage of cells with enhanced marker CD69 or CD71 using flow cytometry. PBMCs were incubated with the peptides (40 μg/mL) for 48 hours in RPMI plus 10% human AB serum.

The subject of experiment [6] is PBMCs. Briefly: PBMC activation (CD69) in culture medium with cancer sera. The experiment is classed as cell-based. The conditions noted are these: sera from dogs with cancer or human patients with cancer.

Turning to “biotinylated P28R: P28R labelled with biotin (KKLDTFFVKLSLFTER; also: biotin label, position not given here)”, the “direct binding to PBMCs” value with PBMCs [1] was “bind directly to PBMCs”.
In the case of KKLDTFFKKLSLFTER [P27], in the experiment with PBMCs [2], the “effect on MTS conversion” value is recorded as “no effect”. For the same substance, the “blocking of the binding of P3028 in solution” value in experiment [3] is recorded as “does not”. Also, the “effect on IL-2 induced proliferation (BrdU)” value in the experiment with PBMCs [4] is “enhanced the proliferative rate”.
In the case of FFVKLS [P28 core], the “binding to P3028 based on positional scans” value in the experiment with P3028 (SEQ ID NO: 185) is recorded as “as efficiently as the full length peptide P28R”. The “PBMC activation, enhanced CD69 or CD71” value in experiment [5] was “did not activate”. Also, in the experiment on PBMCs [6], the “PBMC activation, enhanced CD69” value is “activated PBMCs”.
